Tests used:
[1] = system: HMEC-CA-p110α, HMEC-CA-p110β, HMEC-CA-p110δ; type: cell-based, human; conditions: isogenic HMEC-CA-p110 lines, serum-free, western blot
PC3 tumors = assay: Xenograft tumor growth; type: in vivo, mice; conditions: PTEN-deficient; IP, 20 mg/kg, BID
Rat1-CA-p110α tumors [2] = assay: In vivo pharmacodynamics, pAKT in tumor lysates; design: species or system mice; conditions: after single IP injection 10 mg/kg
HCC70 tumors = assay: Xenograft tumor growth; type: in vivo, mice; conditions: PTEN-deficient; IP, 20 mg/kg, BID
[3] = system: panel of 422 cancer cell lines; assay: High-throughput cell viability assay; type: cell-based, human; conditions: threshold EC50 < 5 µM, 72 h treatment
panel of 433 kinases = assay: KinomeScan kinase selectivity profile; type: binding; conditions: 10 µM
HMEC-CA-p110β = assay: BacMam-enabled LanthaScreen cellular assay; type: cell-based; conditions: Homo sapiens, read-out: IC50 in cell culture
In vivo pharmacokinetics = assay: In vivo pharmacokinetics; design: species or system mice
HCC1954 tumors = assay: Xenograft tumor growth; type: in vivo, mice; conditions: PTEN wild-type
Rat1-CA-p110β tumors [4] = assay: Xenograft tumor growth; type: in vivo, mice; conditions: IP 20 mg/kg once or twice daily
Rat1-CA-p110α tumors [5] = assay: Xenograft tumor growth; type: in vivo, mice; conditions: IP 20 mg/kg once or twice daily
Rat1-CA-p110β tumors [6] = assay: In vivo pharmacodynamics, pAKT in tumor lysates; design: species or system mice; conditions: 1 hour after single IP injection 10 mg/kg
[7] = system: HCC70, MDA-MB-468, BT549 and PC3 cell lines; assay: Western blot of AKT phosphorylation in PTEN-null cancer cell lines; type: cell-based, human
[8] = single IP injection 10 mg/kg, tumor-bearing mice

## Cc1cc(C(C)Nc2ccccc2)c2nc(N3CCOCC3)cc(=O)n2c1 (centres unmarked) [TGX-221]
[1]
  inhibition of phosphorylation of AKT at Thr308 and Ser473: in a dose-dependent manner

## Cc1cc([C@@H](C)Nc2ccccc2C(=O)O)c2nc(N3CCOCC3)cc(=O)n2c1 [KIN-193, (−)2-[1-(7-Me-2-(morpholin-4-yl)-4-oxo-4H-pyrido[1,2-a]pyrimidin-9-yl)ethylamino]benzoic acid]
PC3 tumors
  tumor growth: significantly inhibited tumor growth
Rat1-CA-p110α tumors [2]
  phosphorylation of AKT in tumor lysates: remained unchanged
HCC70 tumors
  tumor growth: significantly inhibited tumor growth
[3]; 20 out of 57 lines
  cell lines with PTEN mutations sensitive to compound: 35%
[3]; 58 out of 365 lines
  cell lines with wild-type PTEN sensitive to compound: 16%
Panel of 433 kinases
  inhibitor-kinase interaction profile: highly selective in its interaction with PI3Ks
HMEC-CA-p110β
  IC50: 100 to 500 nM
In vivo pharmacokinetics; Mus musculus, read-out: IC50 / level reached in vivo
  IC50: ≤ 1000 nM
In vivo pharmacokinetics; mice
  optimal route for robust in vivo exposure: intraperitoneal (IP) delivery to be the optimal route
In vivo pharmacokinetics; single IP injection 10 mg/kg
  concentrations in CA-p110α- and CA-p110β-driven tumors: paralleled the plasma concentrations
In vivo pharmacokinetics; [8]
  time by which plasma concentration declined to undetectable levels: ≤ 4 h
  time of highest plasma concentration: 1 h
HCC1954 tumors; IP, 20 mg/kg, BID
  tumor growth: failed to block the growth
Rat1-CA-p110β tumors [4]
  tumor growth: significantly impaired
Rat1-CA-p110α tumors [5]
  tumor growth: little effect
Rat1-CA-p110β tumors [6]
  phosphorylation of AKT in tumor lysates: significantly reduced
[7]
  effect on AKT phosphorylation: significantly inhibited AKT phosphorylation

## CS(=O)(=O)N1CCN(Cc2cc3nc(-c4cccc5[nH]ncc45)nc(N4CCOCC4)c3s2)CC1 [GDC-0941, reference compound]
HCC1954 tumors; PO, 150 mg/kg, QD
  tumor growth: responded to treatment

## Cc1ccccc1-n1c(Cn2cnc3c(N)ncnc32)nc2cccc(C)c2c1=O [IC87114]
[1]
  inhibition of phosphorylation of AKT at Thr308 and Ser473: in a dose-dependent manner
[7]
  effect on AKT phosphorylation: had much less effect

## Cc1ccc([N+](=O)[O-])cc1S(=O)(=O)N(C)/N=C/c1cnc2ccc(Br)cn12 [PIK-75]
[1]
  inhibition of phosphorylation of AKT at Thr308 and Ser473: in a dose-dependent manner
[7]
  effect on AKT phosphorylation: had much less effect

Reference: article PMC3384541 (Cancer discovery, 2012)
